According to patent US7220764B2, “Sphingosine kinase inhibitors” (The Pennsylvania State University Research Foundation, priority 2002, dated 2007):
Counter-ions that a name gives are not always drawn. Like-named read-outs stand apart in the source and are kept apart here.

Columns and labels:
[1] = target: T1, recombinant human SK (Homo sapiens, UniProt Q9NYA1); experiment: Sphingosine kinase screen / inhibition of recombinant human SK ([3H]sphingosine to [3H]S1P); assay type: biochemical; details: for inhibition at 5 µg/mL: read-out: inhibited SK activity by %; for IC50: mean ± SD of triplicate experiments, read-out: SK, concentration required to inhibit enzyme activity by 50%
T1 construct: glutathione-S-transferase (GST); made in house; host or cells: bacteria (PGEX bacterial expression vector, Pharmacia)
Protocol: This method involved incubating [^3H]sphingosine with 1 mM ATP under conditions defined in the reference, followed by extraction of the assay mixture with chloroform:methanol (2:1) under basic conditions. […] Radioactivity in aliquots of the aqueous phase was then quantified as a measure of [^3H]S1P formation.
Varying concentrations of the indicated compounds were evaluated for inhibition of recombinant human SK as described above.

[2] = target: ERK2 (Homo sapiens, UniProt P28482); experiment: Kinase selectivity panel: ERK2; assay type: biochemical; details: for IC50: human isoform, mean ± SD of triplicate experiments, read-out: ERK2, concentration required to inhibit enzyme activity by 50%
Protocol: (§1) Thus potencies of each inhibitor were determined for human isoforms of ERK2, PI3K and PKCα. SK inhibition data is provided for comparison. Data represent the concentrations required to inhibit enzyme activity by 50%, and are the mean ±SD of triplicate experiments. Results designated as “None” indicate that no inhibition was detected at concentrations up to 60 μM.

[3] = target: T2, PI3K; experiment: Kinase selectivity panel: PI3K (lipid kinase); assay type: biochemical, human; details: for IC50: human isoform, mean ± SD of triplicate experiments, read-out: PI3K, concentration required to inhibit enzyme activity by 50%
T2 construct: other: human isoform; mean ± SD of triplicate experimen; activity toward PI3K (in words)
Protocol: Thus potencies of each inhibitor were determined for human isoforms of ERK2, PI3K and PKCα. […] Data represent the concentrations required to inhibit enzyme activity by 50%, and are the mean ±SD of triplicate experiments. Results designated as “None” indicate that no inhibition was detected at concentrations up to 60 μM.

[4] = target: PKCα (Homo sapiens, UniProt P17252); experiment: Kinase selectivity panel: PKCα; assay type: biochemical; details: for IC50: human isoform, mean ± SD of triplicate experiments, read-out: PKCα, concentration required to inhibit enzyme activity by 50%
Protocol: as §1

[5] = system: T-24 human bladder carcinoma cells; experiment: Cytotoxicity, SRB binding assay, T24; assay type: cell-based; details: 48 h treatment, mean ± SD
Protocol: (§2) The SK inhibitor compounds of the invention are antiproliferative and induce apoptosis in replicating cells. In order to assess the compounds' efficacy in intact cells, the compounds were evaluated for cytotoxicity using a panel of human cancer cell lines. These experiments followed methods that have been extensively used (see for, example, Smith et al., Cancer Res. 54: 3779–3784 (1994); Smith et al., Oncology Res. 6: 211–218 (1994); and Lawrence et al., J. Med. Chem. 44: 594–601 (2001). Cell lines tested included T-24 human bladder carcinoma cells, MCF-7 human breast adenocarcinoma cells, MCF-7/VP cells, which are a subline of MCF-7 cells that is resistant to several anticancer drugs due to overexpression of the transport protein MRP 1, and NCI/ADR, a cell line resistant to many anticancer drugs due to overexpression of the drug transporter P-glycoprotein.
(§3) The indicated cell lines were treated with varying doses of compounds 1–4 for 48 h. Cell survival was then determined using the SRB binding assay (Skehan et al., 1990, J. Natl. Cancer Inst. 82: 1107–1112), and the concentration of compound that inhibited proliferation by 50% was calculated. Values represent the mean ±SD for replicate samples.
(§4) As these transporters are often overexpressed in tumor cells, particularly after the patient has been treated with cytotoxic drugs, the SK inhibiting compounds of the invention are effective therapeutic agents for resistant tumors.

[6] = system: MCF-7 human breast adenocarcinoma cells; experiment: Cytotoxicity, SRB binding assay, MCF-7; assay type: cell-based; details: MCF7, 48 h treatment, mean ± SD
Protocol: as §2, §3, §4

[7] = system: NCI/ADR cells (P-glycoprotein overexpression); experiment: Cytotoxicity, SRB binding assay, NCI/ADR; assay type: cell-based; details: Homo sapiens, NCI/ADR-RES, 48 h treatment, mean ± SD
Protocol: as §2, §3, §4

[8] = system: MCF-7/VP cells (MRP 1 overexpression); experiment: Cytotoxicity, SRB binding assay, MCF-7/VP; assay type: cell-based; details: Homo sapiens, MCF7-VP, 48 h treatment, mean ± SD
Protocol: as §2, §3, §4

[9] = system: mouse JC mammary adenocarcinoma cells; experiment: Antitumor activity in syngeneic tumor model; assay type: in vivo, Balb/c mice; details: 75 mg/kg intraperitoneally on days 1, 5, 9 and 15
Protocol: These cells express elevated levels of SK activity relative to non-transformed cells, as well as the multidrug resistance phenotype due to P-glycoprotein activity (data not shown). Balb/c mice, 6–8 weeks old, were injected subcutaneously with […] suspended in PBS. […] The insert indicates the body weight of the animals during this experiment.

[10] = 5 μg/ml of compound (corresponds to 10–25 μM), 1 mM ATP

T1 sequence (Q9NYA1 whole entry): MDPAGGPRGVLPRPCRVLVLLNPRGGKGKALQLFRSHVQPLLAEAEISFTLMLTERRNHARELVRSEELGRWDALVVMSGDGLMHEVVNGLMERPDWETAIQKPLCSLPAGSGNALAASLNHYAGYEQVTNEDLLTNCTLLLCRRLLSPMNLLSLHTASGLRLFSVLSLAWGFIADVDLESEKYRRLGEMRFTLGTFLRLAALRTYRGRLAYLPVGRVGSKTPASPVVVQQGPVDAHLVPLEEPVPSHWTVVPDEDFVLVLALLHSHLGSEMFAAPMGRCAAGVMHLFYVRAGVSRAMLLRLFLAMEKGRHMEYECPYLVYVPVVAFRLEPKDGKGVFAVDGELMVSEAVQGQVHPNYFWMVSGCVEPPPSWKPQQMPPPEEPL
Chain of ERK2 (P28482 whole entry, canonical isoform): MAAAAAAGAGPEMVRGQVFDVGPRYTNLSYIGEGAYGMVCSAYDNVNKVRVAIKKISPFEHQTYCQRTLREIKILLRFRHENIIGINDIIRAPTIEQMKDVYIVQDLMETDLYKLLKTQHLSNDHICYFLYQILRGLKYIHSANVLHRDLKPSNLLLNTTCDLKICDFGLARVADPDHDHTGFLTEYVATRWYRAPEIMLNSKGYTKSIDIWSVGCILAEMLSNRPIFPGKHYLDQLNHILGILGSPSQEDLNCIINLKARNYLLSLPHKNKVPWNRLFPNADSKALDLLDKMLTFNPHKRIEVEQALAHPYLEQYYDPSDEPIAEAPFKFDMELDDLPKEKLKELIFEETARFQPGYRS

Row | Structure (SMILES) | inhibition at 5 µg/mL [1, 10] [%] | IC50 [2] [µM] | IC50 [3] [µM] | IC50 [4] [µM] | IC50 [5] [µM] | IC50 [6] [µM] | IC50 [7] [µM] | IC50 [8] [µM] | other results
1 | O=C(/C=C(O)/C(O)=C/C(=O)c1ccccc1)c1ccccc1 [Compound 11, 3,4 -Dihydroxy-1,6-diphenyl-hexa-2,4-diene-1,6-dione] | 98 | – | – | – | – | – | – | – | –
2 | COc1ccc(N2C(=O)/C(=C\c3ccc(O)cc3O)SC2=S)cc1 [Compound 1, 5-(2,4-Dihydroxy-benzylidene)-3-(4-methoxy-phenyl)-2-thioxo-thiazolidin-4-one] | 99 | 26 ± 2 | 42 ± 10 | > 60 | 5.8 ± 1.5 | 6.8 ± 1.5 | 6.2 ± 1.5 | 24.6 ± 1.9 | IC50 [1]: 2.5 ± 0.7 µM
3 | CCCCCCCCCCCCC/C=C/[C@@H](O)[C@H](CO)N(C)C [dimethylsphingosine, reference compound] | – | – | – | – | – | – | – | – | inhibition of SK activity by positive control ([1]; at concentrations above 25 μM): completely inhibited
4 | O=S(=O)(c1ccc(O)cc1)c1ccc(O)c(C23CC4CC(CC(C4)C2)C3)c1 [Compound 7, 2-(1-adamantyl)-4-[(4-oxidophenyl)sulfonyl]benzenolate disodium salt] | 91 | – | – | – | – | – | – | – | –
5 | CCOc1ccc2c(c1)NC(C)(C)c1ss/c(=N/c3ccc(O)cc3)c1-2 [Compound 10, 4-(7-Ethoxy-4,4-dimethyl-4,5-dihydro-2,3-dithia-5-aza-cyclopenta [α]naphthalen-1-ylideneamino)-phenol] | 81 | – | – | – | – | – | – | – | –
6 | O=C(N/N=C/c1c(O)ccc2ccccc12)c1cc(-c2ccc3ccccc3c2)n[nH]1 [Compound 2, 5-Naphthalen-2-yl-2H-pyrazole-3-carboxylic acid (2-hydroxy-naphthalen-1-ylmethylene)-hydrazide] | – | 11 ± 1 | > 60 | > 60 | 1.1 ± 1.2 | 0.4 | 0.8 ± 1.3 | 2.9 ± 2 | IC50 [1]: 1.2 ± 0.3 µM; inhibition at 5 µg/mL [1]: 85%; fold less potent toward ERK2 than SK ([2]; ERK2 versus SK): 10 fold
7 | Oc1ccc(Nc2nc(-c3ccc(Cl)cc3)cs2)cc1 [Compound 3, 4-[4-(4-Chloro-phenyl)-thiazol-2-ylamino]-phenol] | 99 | > 60 | > 60 | > 60 | 4.6 ± 1.6 | 1.2 ± 1.3 | 1.3 ± 1.1 | 0.9 ± 1.8 | activity toward ERK2 (in words) [2]: no inhibition was seen; activity toward PI3K (in words) [3]: no inhibition was seen; inhibition of PKCα (in words) [4]: no inhibition was seen
8 | COc1ccc(-n2c(SCC(=O)Nc3nc4ccccc4s3)nc(O)cc2=O)cc1 [Compound 6, N-Benzothiazol-2-yl-2-[4-hydroxy-1-(4-methoxy-phenyl)-6-oxo-1,6-dihydro-pyrimidin-2-ylsulfanyl]-acetamide] | 91 | – | – | – | – | – | – | – | –
9 | Cc1cc2nc3s/c(=C\c4cc(I)cc(I)c4O)c(=O)n3c2cc1C [Compound 8, 2-(2-Hydroxy-3,5-diiodo-benzylidene)-6,7-dimethyl-benzo[4,5] imidazo [2,1-b] thiazol-3-one] | 98 | – | – | – | – | – | – | – | –
10 | CCc1cc2c(s1)[S][Zn]1([N]=C2)[N]=Cc2cc(CC)sc2[S]1 [Compound 12] | – | – | – | – | – | – | – | – | inhibition at 5 µg/mL [1]: 87%
11 | O=C1/C(=C/c2ccc(O)c(O)c2)Sc2ccccc21 [Compound 4, 2-(3,4-Dihydroxy-benzylidene)-benzo [b] thiophen-3-one] | 89 | 40 ± 5 | 7 ± 2 | > 60 | 7.8 ± 2 | 1 ± 1.7 | 1.2 ± 2.4 | 1.8 ± 1.1 | IC50 [1]: 0.6 ± 0.1 µM; activity toward ERK2 (in words) [2]: weak activity; activity toward PI3K (in words) [3]: moderate activity
12 | N#C/C(=C\c1ccc(O)c(O)c1)c1nc(-c2ccc3c(c2)OCO3)cs1 [Compound 9, 2-(4-Benzo[1,3]dioxol-5-yl-thiazol-2-yl)-3-(3,4-dihydroxy-phenyl)-acrylonitrile] | 94 | – | – | – | – | – | – | – | –
13 | O=C1/C(=C/c2ccc(O)c(O)c2)Oc2ccccc21 [Compound 5, 2-(3,4-Dihydroxy-benzylidene)-benzofuran-3-one] | – | 80 ± 4 | – | > 60 | – | – | – | – | activity toward ERK2 (in words) [2]: weak activity; activity toward PI3K (in words) [3]: moderate activity; difference in body weights versus control group [9]: No significant difference; tumor growth decreased versus control animals ([9]; day 18, volume relative to day 1): > 50%
